From PubChem BioAssay (NCI)
Values joined by “and” are separate entries in the source; they are usually repeats but may differ in a detail not shown here. Equal values may be shown once.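 Cultured in 96-well plates, cells were exposed to test compound for 48 hours across five concentrations. The concentration for 50% growth inhibition is given as GI50. Definition used: TGI = concentration required for complete inhibition of growth.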

Tests used:
Experiment in all cases: NCI-60 cell line screen, 48 h
[1] = test system: OVCAR-3 ovarian
[2] = test system: TK-10 renal
[3] = test system: SK-MEL-2 melanoma
[4] = test system: NCI-H460 lung
[5] = test system: OVCAR-4 ovarian
[6] = test system: COLO 205 colon
[7] = test system: BT-549 breast
[8] = test system: DU-145 prostate
[9] = test system: MCF7 breast
[10] = test system: T-47D breast

| Structure (SMILES) | TGI [1] | TGI [2] | TGI [3] | TGI [4] | TGI [5] | TGI [6] | GI50 [1] | GI50 [2] | GI50 [7] [nM] | TGI [7] [µM] | GI50 [4] | GI50 [8] [µM] | TGI [8] [µM] | GI50 [5] [nM] | GI50 [9] [µM] | TGI [9] [µM] | GI50 [6] [µM] | GI50 [10] [µM] | TGI [10] [µM] | GI50 [3] |
| --- | --- | --- | --- | --- | --- | --- | --- | --- | --- | --- | --- | --- | --- | --- | --- | --- | --- | --- | --- | --- |
| COCOCc1cc(OCc2ccccc2)c(OC)cc1Br | > 100 µM | > 100 µM | > 100 µM | > 100 µM | > 100 µM | > 100 µM |  |  |  |  |  |  |  |  |  |  |  |  |  |  |
| CC(=O)c1c(O)ccc2c(C)c(C(=O)O)oc12 | > 100 µM | > 100 µM |  | > 100 µM | > 100 µM | > 100 µM | > 100000 nM | > 100 µM | > 100000 | > 100 | > 100000 nM | > 100 | > 100 | > 100000 | > 100 | > 100 | > 100 | > 100 | > 100 |  |
| Oc1ccc2c3c1OC1C(=NN=C4CCC5(O)C6Cc7ccc(O)c8c7C5(CCN6CC5CC5)C4O8)CCC4(O)C(C2)N(CC2CC2)CCC314 (stereo not drawn) | 34.6 µM | > 70.2 µM | 18.9 µM | 46.1 µM | > 66 µM | 38.4 µM |  |  |  |  |  |  |  |  |  |  |  |  |  |  |
| N#CCCN(CCC#N)c1ccc(/C=N\c2nc(-c3ccccc3)cs2)cc1 | > 100 µM | > 100 µM | > 100 µM | > 100 µM | > 100 µM | > 100 µM |  |  |  |  |  |  |  |  |  |  |  |  |  |  |
| O=C1Nc2ccccc2/C1=C/c1cn(C(=O)c2c(Cl)cccc2Cl)c2ccccc12 | 3.65 µM | 56 µM |  | 3.97 µM |  | 22.2 µM | 1650 nM | 10.4 µM | 2400 | 8.95 | 2000 nM | 2.72 | 9.24 |  |  |  | 7.52 | 4.13 | 93 |  |
| C=CCC12CC(=O)C=C1CCC1(C2)OCCO1 (stereo not drawn) | > 100 µM | > 100 µM | > 100 µM | > 100 µM | > 100 µM | > 100 µM |  |  |  |  |  |  |  |  |  |  |  |  |  |  |
| COc1ccc(NC(=O)COC(=O)c2cccc3c(=O)c4ccccc4[nH]c23)cc1 | 43.8 µM | 42.1 µM |  |  | 38.4 µM | 33.3 µM |  |  |  |  |  |  |  |  |  |  |  |  |  |  |
| O=C1CCCC(=O)C1=C(O)CCCCCCCCCCc1ccccc1 | > 100 µM | > 100 µM | 49.1 µM | > 100 µM | > 100 µM | 31.8 µM |  |  |  |  |  |  |  |  |  |  |  |  |  |  |
| O=C1Cc2ccccc2N1c1c(Cl)cccc1Cl | > 100 µM | > 100 µM | > 100 µM | > 100 µM | > 100 µM | > 100 µM |  |  |  |  |  |  |  |  |  |  |  |  |  |  |
| COc1cc(C2CC(c3ccc(Nc4ccnc5cc(Cl)ccc45)cc3)=NN2C=O)cc(OC)c1OC (stereo not drawn) | 3.4 µM | 9.4 µM |  | > 100 µM | 13.3 µM | 70.4 µM | 1910 nM | 3.09 µM | 1920 | 3.97 | 4420 nM | 6.63 | > 100 | 3190 | 3.23 | > 100 | 3.73 | 2.33 | 7.4 |  |
| CN(C)c1ccc(/C=C/c2ccnc3ccccc23)cc1N | 10.2 µM | 20.2 µM | 21.3 µM | 22.3 µM | 32.9 µM | 19.6 µM |  |  |  |  |  |  | 30.2 |  |  | 8.29 |  |  | 5.36 |  |
| CCC[CH2][Sn]1([CH2]CCC)[O]C(=O)c2cccc(OC)c2[O]1 | 2.01 µM | 0.829 µM | 0.574 µM | 2.9 µM | 2.25 µM | 1.78 µM | 626 nM | 0.316 µM |  |  | 1380 nM |  |  | 1050 |  |  | 0.491 |  |  | 156 nM |
| Cc1cc(Cl)ccc1NC(=O)CC1SC(N)=NC1=O (stereo not drawn) | > 100 µM | > 100 µM | > 100 µM | > 100 µM | > 100 µM | > 100 µM |  |  |  |  |  |  |  |  |  |  |  |  |  |  |
| Cn1cnc([N+](=O)[O-])c1SC1=NCCS1 | > 100 µM | > 100 µM | > 100 µM | > 100 µM | > 100 µM | > 100 µM |  |  |  |  |  |  |  |  |  |  |  |  |  |  |
| N#CCC12CC=CCC1=C(O)C(=O)c1ccc(O)cc12 (stereo not drawn) | > 100 µM | > 100 µM | > 100 µM | > 100 µM | > 100 µM | > 100 µM |  |  |  |  |  |  | > 100 |  |  | > 100 |  |  | > 100 |  |
| O=C1C2C(C(=O)N1c1ccccc1)C1(c3ccccc3)OC2(c2ccccc2)c2ccccc21 (stereo not drawn) | > 100 µM | > 100 µM | > 100 µM | > 100 µM | > 100 µM | > 100 µM |  |  |  |  |  |  |  |  |  |  |  |  |  |  |
| Cc1ccc(NC(=O)COC(=O)c2cccc3c(=O)c4ccccc4[nH]c23)cc1 | > 100 µM | > 100 µM |  | > 100 µM | > 100 µM | 77.9 µM |  |  |  |  |  |  |  |  |  |  |  |  |  |  |
| CC1C=CC(C)C2(O)C(=O)NC(O)C12 (stereo not drawn) |  | > 100 µM | > 100 µM | > 100 µM | > 100 µM | > 100 µM |  |  |  |  |  |  |  |  |  |  |  |  |  |  |
| O=C(Nc1ccc([N+](=O)[O-])cc1C(=O)O)c1ccc([N+](=O)[O-])cc1 | > 100 µM | > 100 µM | 92.2 µM | > 100 µM | > 100 µM |  |  |  |  |  |  |  |  |  |  |  |  |  |  |  |
| CCOC(=O)N[C@H]1CCc2cc(O)c(OC)c(OC)c2-c2ccc(SC)c(=O)cc21 | 0.0375 µM | > 100 µM | 0.173 µM | 3.58 µM | > 100 µM | 1.22 µM |  |  |  |  |  |  |  |  |  |  |  |  |  |  |
| C/C=C(\CCC1NCCc2c1[nH]c1ccccc21)[Si](C)(C)C (stereo not drawn) | 2.39 µM and 7.41 µM | 27.5 µM and 17 µM | 9.67 µM and 3.7 µM | 10.9 µM and 3.78 µM | 12.6 µM and 9.04 µM | 27.5 µM and 3.26 µM | 413 nM and 2910 nM | 14.3 µM and 5.62 µM |  | 23.2 | 5560 nM and 1920 nM |  | 26.1 |  |  |  |  |  | 4.89 | 5280 nM and 1940 nM |
| C#C[C@@]1(O)CCCC2=CC(=O)C[C@]21C | > 100 µM | > 100 µM | > 100 µM | > 100 µM |  | > 100 µM |  |  |  |  |  |  |  |  |  |  |  |  |  |  |
| COc1cc2c3c(n(CCCNC(=O)OCC4c5ccccc5-c5ccccc54)c(=O)c2cc1OC)-c1cc2c(cc1C3=O)OCO2 | > 100 µM | > 100 µM | > 100 µM | > 100 µM | > 100 µM | > 100 µM | > 100000 nM | > 56.2 µM |  |  | 2570 nM | > 100 | > 100 | > 100000 | 7.62 | > 100 | > 100 | > 100 | > 100 | 45500 nM |
| N#Cc1c(NC(=O)c2cccc3ccccc23)sc2c1CCCC2 | 0.107 µM |  | > 25 µM | > 25 µM | > 25 µM | 0.193 µM | 41.7 nM |  | 144 | > 20.9 | 78.5 nM | 0.0759 | 2.86 | 190 | 0.09 | > 25 | 0.0723 | 0.101 | > 20.1 | 137 nM |
